According to US20070104714A1, “Composition and method for the treatment of cancer and other physiologic conditins based on modulation of the ppar-gamma pathway and her-kinase axis” (CEDARS-SINAI MEDICAL CENTER, priority 2003, published 2007):

Assays:
[1] = Toxicity and weight loss in xenograft-bearing treated animals; format: in vivo, nude mice; conditions: for Lethal toxicity or significant weight loss: combination study, CWRSA6, R-etodolac 200 mg/kg daily, 2C4 20 mg/kg 2X/wk, three weeks
PPARγ1 = assay: PPARγ protein (Western blot) and mRNA (RT-PCR) in treated prostate cancer xenografts; format: in vivo, nude mice; conditions: for PPARγ protein by immunoblot in xenograft lysates of combination study: 22 days of treatment
Protocol: Total RNA was extracted from prostate tumors or the LNCaP cell line using the TRIZOL reagent (obtained from Invitrogen Corp.; San Diego, Calif.). Samples were heated at 95° C. for 3 minutes and snap-cooled before proceeding with DNase I treatment to prevent RNA/DNA hybridization. DNase I (obtained from Ambion; Austin, Tex.) was used to remove any genomic DNA that might interfere with the reaction. Samples were treated with DNase I for 1 hour at 37° C. The RNA yield was quantified spectrometrically.
Total RNA was reverse-transcribed (RT) into cDNA and polymerase chain reaction (PCR) was performed in the same reaction using a real-time TAQman One-Step RT-PCR Master Mix Reagents Kit (obtained from Applied Biosystems; Foster City, Calif.). The sequences of the primer/probe sets used for this analysis are as follows. F and R are the forward and reverse primers, respectively, and P is the fluorescent-labeled probe.
The real-time one step RT-PCR cycling conditions for all primer sets were as follows: 30 min at 48° C. for RT step; 10 min at 95° C. for […] Gold Activation; and 40 cycles for cDNA denaturing (95° C., 15 s), and annealing/elongation (60° C. for 1 min) steps. PCR reactions for each template were done in triplicate using 1 μg of total RNA per sample. Each gene-specific primer pair was tested on standard 384-well plates. Standard curves were constructed using 10-1000 ng of total RNA prepared from the CWRSA6 tumor line.
The comparative CT method (Perkin Elmer Applied Biosystems; Foster City, Calif.) was used to determine relative quantification of gene expression for each gene compared with the β-actin control. First, the CT values from the β-actin reactions were averaged for each triplicate. Next, the CT values from the gene-of-interest reactions were averaged. The gene-of-interest average was […] the β-actin average to take into account the variability of total RNA.
(§1) Immunoblots were performed as described in Towbin H., “Electrophoretic Transfer of Proteins from Polyacrylamide Gels to Nitrocellulose Sheets: Procedure and Some Applications,” Proc. Natl. Acad. Sci. USA, Vol. 76, No. 9 p. 4350-4354 (1979) using aliquots of tumor lysates (100 μg per lane) or lysates from LNCaP cells (100 μg per lane). Protein concentration was determined with a Bradford Assay (obtained from Bio-Rad Inc.; Hercules, Calif.). The lysates were separated on 10% SDS polyacrylamide gels and transferred onto nitrocellulose filters. […]

[2] = test system: cyclin D1 expression in LNCaP cells; assay: Cyclin D1 mRNA (RT-PCR) and protein (Western blot) expression in LNCaP cells; format: cell-based, human
Protocol: (§2) Total RNA was extracted from prostate tumors or the LNCaP cell line using the TRIZOL reagent (obtained from Invitrogen Corp.; San Diego, Calif.). Samples were heated at 95° C. for 3 minutes and snap-cooled before proceeding with DNase I treatment to prevent RNA/DNA hybridization. DNase I (obtained from Ambion; Austin, Tex.) was used to remove any genomic DNA that might interfere with the reaction. Samples were treated with DNase I for 1 hour at 37° C. The RNA yield was quantified spectrometrically. […]
(§3) The mRNA expression of cyclin D1 (Takayasu, H. et al., “Frequent deletions and mutations of the beta-catenin gene are associated with overexpression of cyclin D1 and fibronectin and poorly differentiated histology in childhood hepatoblastoma,” Clin. Cancer Res., Vol. 7, p. 901-908 (2001)) and the HER-kinase receptors were analyzed using primer sets as described in Agus, D. B. et al, “Targeting ligand activated ErbB2 signaling inhibits breast and prostate tumor growth,” Cancer Cell, Vol. 2, p. […]
(§4) The comparative CT method (Perkin Elmer Applied Biosystems; Foster City, Calif.) was used to determine relative quantification of gene expression for each gene compared with the β-actin control. […]
The 22Rv1 cells were seeded into 100 mm dishes and allowed to attach for a period of 18 hours. […] MAP-kinase activation was assessed by Western blot analysis using methods described above. […]

cyclooxygenase (COX) = conditions: literature (Adachi et al.; Demerson et al.); cited from earlier work
[3] = test system: CD36 expression in THP-1 cells; assay: TPA-induced CD36 scavenger receptor expression in THP-1 cells by flow cytometry; format: cell-based, human; conditions: 200 μM, TPA 40 ng/ml
Protocol: Prostate carcinoma cell lines, 22Rv1 and LNCaP, and human acute monocytic leukemia (THP-1) cells were obtained from the American Type Culture Collection (Rockville, Md.) and maintained in RPMI 1640 medium supplemented with 10% FBS, 100 μg/ml penicillin and 100 μg/ml streptomycin (obtained from GIBCO; Grand Island, N.Y.). […] Second, the combination of PPARγ transactivation, together with protein kinase C activation by a phorbol ester, has been reported to induce the scavenger receptor CD36 in macrophages (Han and […], 2002). CD36 is documented as a PPARγ-regulated gene (Tontonoz et al., 1998). […] THP-1 cells were treated for 5 days with 200 μM etodolac (racemic mixture) and 20 μM troglitazone in the presence or absence of 40 ng/ml phorbol ester (TPA) for 48 hours. Cells were fixed and stained with unconjugated anti-CD36 and FITC conjugated anti-IgG and analyzed by flow cytometry. A population of 10,000 viable cells was analyzed for each treatment.

PPARγ = target: T1, PPARγ (Homo sapiens, UniProt P37231); assay: PPARγ reporter (AOx)3-TK-Luc transient transfection luciferase assay in RAW 267.4 cells; format: cell-based; conditions: for PPRE-driven reporter gene expression / PPARγ transactivation: varying concentrations, with recombinant PPARγ
T1 construct: expressed in transfected cells; host or cells: RAW 267.4 mouse macrophages
T1 sequence (P37231 1-505): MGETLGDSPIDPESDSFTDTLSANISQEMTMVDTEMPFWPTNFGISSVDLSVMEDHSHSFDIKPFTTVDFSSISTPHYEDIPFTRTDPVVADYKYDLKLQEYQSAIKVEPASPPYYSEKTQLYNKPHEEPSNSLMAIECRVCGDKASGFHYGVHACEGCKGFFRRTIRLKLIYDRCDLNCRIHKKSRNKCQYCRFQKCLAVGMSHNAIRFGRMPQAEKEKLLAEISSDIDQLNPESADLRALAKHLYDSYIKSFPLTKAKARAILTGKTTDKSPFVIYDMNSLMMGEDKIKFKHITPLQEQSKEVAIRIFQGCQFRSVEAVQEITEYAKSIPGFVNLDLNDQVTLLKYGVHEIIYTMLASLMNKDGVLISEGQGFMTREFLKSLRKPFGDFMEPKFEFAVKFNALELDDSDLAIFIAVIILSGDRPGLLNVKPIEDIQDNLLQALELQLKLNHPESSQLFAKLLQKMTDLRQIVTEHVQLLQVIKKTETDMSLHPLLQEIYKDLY
Protocol: […] cells were maintained at 37° C. and 5% CO2 in Dulbecco's modified eagle medium (DMEM) with high glucose (obtained from GIBCO; Grand Island, N.Y.) supplemented with 10% fetal bovine serum (FBS), 100 μg/ml penicillin and 100 μg/ml streptomycin.
For transfection, cells were grown in DMEM with 10% FBS for at least 24 hours prior to transfection. Transient transfections were performed in 12-well plates for at least 24 hours prior to transfection. At approximately 50% confluence, cells were transfected using the FuGENE transfection reagent (obtained from Roche Diagnostics GmbH; Mannheim, Germany) according to the manufacturer's instruction with 0.5 μg of reporter plasmid (AOx)3-TK-Luc, 0.1 to 0.2 μg of control plasmid pCMXμgal, 0.1 μg PPARγ expression plasmid and carrier DNA for a total of 1 μg DNA per well. After 16 hours, the cells were washed and fresh medium containing the appropriate amount of drugs, prepared in 0.5% DMSO, was added to the cells for another 24 hours. The cells were treated with either vehicle alone (DMSO), indomethacin, rosiglitazone or varying concentrations of R- or S-etodolac.
For luciferase assays, cells were lysed in potassium phosphate buffer containing 1% TRITON X-100 (obtained from Rohm and Haas Co.; Philadelphia, Pa.) and light emission was detected in the presence of luciferin using a microtiter plate luminometer. Luciferase values were normalized for variations in transfection efficiency using a β-galactosidase internal control. The results are expressed as relative luciferase units (RLU). The luciferase activity values represent the mean of a minimum of three independent transfections performed in triplicate.
The 22Rv1 cells were seeded into 100 mm dishes and allowed to attach for a period of 18 hours. The media was then replaced with phenol red-free and serum-free RPMI 1640, with 100 μg/ml penicillin and 100 μg/ml streptomycin ±R-etodolac for the indicated times. MAP-kinase activation was assessed by Western blot analysis using methods described above. LNCaP cells were treated with R-etodolac at 200, 400, and 600 μM concentrations for 18 Hours. Total protein or RNA was isolated using methods as described previously. Cyclin D1 protein and mRNA expression were assessed by western blot and a real-time quantitative RT-PCR assay as previously described. This transactivation function is mediated only in the presence of recombinant PPARγ.

[4] = test system: phospho-MAP kinase in 22Rv1 cells; assay: Phospho-MAP kinase activation Western blot in 22Rv1 prostate cancer cells; format: cell-based, human; conditions: 500 μM, within 20 minutes of addition, then sustained
Protocol: as §1
The 22Rv1 cells were seeded into 100 mm dishes and allowed to attach for a period of 18 hours. […] MAP-kinase activation was assessed by Western blot analysis using methods described above. […] Cyclin D1 protein and mRNA expression were assessed by western blot and a real-time quantitative RT-PCR assay as previously described. […]

HER-kinase receptors = assay: HER-kinase receptor mRNA expression in treated xenografts (RT-PCR); format: in vivo, nude mice; conditions: data not shown
Protocol: as §2, §3, §4

[5] = test system: CWRSA6 human prostate cancer xenografts; conditions: 200 mg/kg o.g. daily; p=0.002
[6] = test system: phospho-p44/42 MAP kinase; assay: Phospho-MAP kinase (p44/42) Western blot in CWRSA6 xenografts, time course; format: in vivo, nude mice
Protocol: Immunoblots were performed as described in Towbin H., “Electrophoretic Transfer of Proteins from Polyacrylamide Gels to Nitrocellulose Sheets: Procedure and Some Applications,” Proc. Natl. Acad. Sci. USA, Vol. 76, No. 9 p. 4350-4354 (1979) using aliquots of tumor lysates (100 μg per lane) or lysates from LNCaP cells (100 μg per lane). Protein concentration was determined with a Bradford Assay (obtained from Bio-Rad Inc.; Hercules, Calif.). The lysates were separated on 10% SDS polyacrylamide gels and transferred onto nitrocellulose filters. The membranes were incubated overnight at 4° C. with antibodies against PPARγ (Sc-7273 obtained from Santa Cruz Inc.; Santa Cruz, Calif.), ERK1 (Sc-94 obtained from Santa Cruz Inc.; Santa Cruz, Calif.), and phospho-p44/42 MAP kinase (9101S obtained from Cell Signal; Beverly, Mass.), and cyclin D1 (554180 obtained from BD Pharmingen; San Diego, Calif.) in parallel with anti-β-actin antibodies (A2066 obtained from Sigma; St. Louis, Mo.) and washed well before incubating with the appropriate α-mouse or α-rabbit secondary antibody conjugated with horseradish peroxidase (obtained from Amersham Biosciences, UK).

[7] = test system: LuCaP-35 human prostate cancer xenografts; assay: Tumor growth of androgen-dependent LuCaP-35 prostate cancer xenografts in nude mice; format: in vivo; conditions: 200 mg/kg o.g. daily; p=0.0103
NIH3T3-PPARγ cells = assay: Neutral lipid accumulation (Oil Red O) in NIH3T3 cells expressing recombinant PPARγ; format: cell-based, mouse
Protocol: Third, PPARγ is accepted as a master regulator of adipocyte differentiation. […] NIH3T3 cells that stably overexpress retrovirally expressed recombinant PPARγ were obtained from Dr. Ronald Evans (Salk Institute, La Jolla, Calif.). […] NIH3T3 cells stably expressing recombinant PPARγ (obtained from Dr. Ronald Evans of the Jonas Salk Institute; San Diego, Calif.) were maintained in DMEM supplemented with 10% BCS, 100 μg/ml penicillin and 100 μg/ml streptomycin (obtained from GIBCO; Grand Island, N.Y.). The cells were treated for seven days with the indicated compounds and concentrations and stained for neutral lipids with Oil Red O as described by Green and Kehinde (“Sublines of mouse 3T3 cells that accumulate lipid,” Cell, Vol. 1, p. 113-116 (1974)).

2C4: Recombinant humanized HER-2 specific monoclonal antibody that inhibits ligand-induced heterodimerization of ErbB2
Lethal toxicity or significant weight loss [1]: no lethal toxicity or significant weight loss
PPARγ protein by immunoblot in xenograft lysates of combination study (PPARγ1; CWRSA6 xenografts): expressed PPARγ

CCc1cccc2c3c([nH]c12)[C@@](CC)(CC(=O)O)OCC3 [R-etodolac]
Cyclin D1 protein expression ([2]; 18 hours, 200, 400 and 600 μM): downregulation
Cyclin D1 mRNA expression ([2]; 18 hours, 200 and 400 μM): downregulation
COX inhibitory activity (cyclooxygenase (COX)): lacks COX inhibitory activity
Lethal toxicity or weight loss (greater than 10% body weight) ([1]; 200 mg/kg o.g. daily, single agent study): no lethal toxicity or weight loss
Lethal toxicity or significant weight loss [1]: no lethal toxicity or significant weight loss
CD36 expression as downstream indicator of PPARγ activation [3]: equivalent potency
Transactivation of PPARγ reporter (fold-induction of luciferase expression) (PPARγ; 100 μM, relative to no drug control, 24 hours): 13 fold
PPRE-driven reporter gene expression / PPARγ transactivation (PPARγ): enhances reporter gene expression in a dose dependent manner
Phospho-MAP kinase activation [4]: transient peak
mRNA expression of the HER-kinase receptors (HER-kinase receptors): did not alter
Tumor growth inhibition relative to control-treated animals [5]: 66%
PPARγ protein in tumors vs vehicle treated control (PPARγ1; CWRSA6 and LuCaP-35 xenografts, two to three weeks of treatment, 200 mg/kg): completely eliminated
PPARγ receptor level in time course experiment (PPARγ1; CWRSA6 xenografts, 24 to 72 hours post treatment): upregulation of the PPARγ receptor in the majority of the animals
PPARγ protein by immunoblot in xenograft lysates of combination study (PPARγ1; CWRSA6 xenografts): complete ablation
Phosphorylated p44/42 levels ([6]; 24 hours post treatment, 200 mg/kg): sharp increase
Total MAP kinase expression ([6]; time course): No difference
MAP kinase activation, rest of time course ([6]; up to 72 hours): low level of sustained activation
Tumor growth inhibition relative to control-treated animals [7]: 46%
Accumulation of neutral lipids and morphological changes (Oil Red O) (NIH3T3-PPARγ cells; 1 μM, seven days): displayed accumulation of neutral lipids
Lipid uptake (Oil Red O) (NIH3T3-PPARγ cells; 500 μM, seven days): significantly more pronounced
Lipid uptake in NIH3T3 cells transfected with the empty retroviral vector (NIH3T3-PPARγ cells; empty vector control cells, data not shown): did not demonstrate the lipid uptake

CCc1cccc2c3c([nH]c12)[C@](CC)(CC(=O)O)OCC3 [S-etodolac]
PPRE-driven reporter gene expression / PPARγ transactivation (PPARγ): can also transactivate PPARγ but to significantly lower levels

COc1ccc2c(c1)c(CC(=O)O)c(C)n2C(=O)c1ccc(Cl)cc1 [indomethacin]
PPARγ transactivation compared with 100 μM R-etodolac (PPARγ; 10 μM): comparable
